Assay results as given in US20120165319A1, “INHIBITORS OF INTERLEUKIN-1 BETA CONVERTING ENZYME” (VERTEX PHARMACEUTICALS INCORPORATED, priority 1995, published 2012).

Experiments:
[1] = test system: IL-1β levels in the peritoneal fluid, carrageenan-challenged mice; experiment: Mouse carrageenan peritoneal inflammation; type: in vivo; conditions: oral administration; 214e at 50 mg/kg; result in words
Experimental: Mouse Carrageenan Peritoneal Inflammation
Inflammation was induced in mice with an intraperitoneal (IP) injection of 10 mg carrageenan in 0.5 ml of saline (Griswold et al., Inflammation, 13, pp. 727-739 (1989)). Drugs are administered by oral gavage in ethanol/PEG/water, β-cyclodextrin, labrosol/water or cremophor/water vehicle. The mice are sacrificed at 4 hours post carrageenan administration, then injected IP with 2 ml of saline containing 5 U/ml heparin. After gentle massage of the peritoneum, a small incision is made, the contents collected and volume recorded. Samples are kept on ice until centrifuged (130×g, 8 mins at 4° C.) to remove cellular material, and the resultant supernatant stored at −20° C. IL-1β levels in the peritoneal fluid are determined by ELISA.

[2] = test system: male DBA/1J mice, type II collagen-induced arthritis; experiment: Type II collagen-induced arthritis; type: in vivo, mouse; conditions: oral gavage twice a day 10, 25 and 50 mg/kg (214e: 50 mg/kg once a day), Arthritis Severity Score, result in words
Experimental: Type II Collagen-Induced Arthritis
Type II collagen-induced arthritis was established in male DBA/1J mice at described Wooley and Geiger (Wooley, P. H., Methods in Enzymology, 162, pp. 361-373 (1988) and Geiger, T., Clinical and Experimental Rheumatology, 11, pp. 515-522 (1993)). Chick sternum Type II collagen ([…] in 10 mM acetic acid) was emulsified with an equal volume of Freund's complete adjuvant (FCA) by repeated passages (400) between two 10 ml glass syringes with a gauge 16 double-hub needle. Mice were immunized by intradermal injection (50 μl; […], CII per mouse) of collagen emulsion 21 days later at the contra-lateral side of the tail base. Drugs were administered twice a day (10, 25 and 50 mg/kg) by oral gavage approximately 7 h apart. Vehicles used included ethanol/PEG/water, β-cyclodextrin, labrosol/water or cremophor/water. Drug treatments were initiated within 2 h of the CII booster immunization. Inflammation was scored on a 1 to 4 scale of increasing severity on the two front paws and the scores are added to give the final score.

O=C[C@H](CC(=O)O)NC(=O)[C@@H]1CCCN2C(=O)CC[C@H](NC(=O)c3ccccc3)C(=O)N12 [Compound 214e, [3S(1S,9S)]3-(9-Benzoylamino-6,10-dioxo-1,2,3,4,7,8,9,10-octahydro-6H-pyridazino[1,2-a][1,2]-diazepine-1-carboxamido)-4-oxobutanoic acid]
inhibition of IL-1β production in carrageenan-challenged mice [1]: did not inhibit IL-1β production
inhibition of inflammation / progression of type II collagen-induced arthritis [2]: did not inhibit inflammation
